Experimental data taken from ChEMBL document CHEMBL1125035, “Synthesis and biological activity of novel vitamin D analogues: 24,24-difluoro-25-hydroxy-26,27-dimethylvitamin D3 and 24,24-difluoro-1 alpha,25-dihydroxy-26,27-dimethylvitamin D3” (1990).

Key:
Rattus norvegicus [1] = experiment: Ability to stimulate intestinal-calcium transport by the administration of compound in rats at a concentration of 500 pmol at 4 hr.; type: functional, Intestine
[2] = target: T1, Vitamin D-binding protein (Rattus norvegicus) (UniProt P04276); experiment: Displacement of [3H]25-(OH)-D3 from rat plasma Vitamin D binding protein; type: cell-free
T1 sequence (whole entry): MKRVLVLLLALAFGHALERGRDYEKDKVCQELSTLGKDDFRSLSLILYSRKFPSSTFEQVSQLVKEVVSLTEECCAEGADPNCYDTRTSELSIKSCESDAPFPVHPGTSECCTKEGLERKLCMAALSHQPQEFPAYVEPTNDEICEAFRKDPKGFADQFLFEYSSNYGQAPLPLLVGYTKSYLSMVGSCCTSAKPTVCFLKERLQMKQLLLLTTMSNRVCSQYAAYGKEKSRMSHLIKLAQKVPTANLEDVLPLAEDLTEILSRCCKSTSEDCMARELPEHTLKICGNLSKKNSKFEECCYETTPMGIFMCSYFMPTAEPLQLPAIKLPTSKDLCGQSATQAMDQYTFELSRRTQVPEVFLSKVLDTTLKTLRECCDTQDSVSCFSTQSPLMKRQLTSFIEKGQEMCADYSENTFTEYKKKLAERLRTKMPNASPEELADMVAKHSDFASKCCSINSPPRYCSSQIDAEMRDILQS

Rattus norvegicus [3] = experiment: Ability to mobilize Bone-Calcium transport, following the administration of compound in rats at a concentration of 5 pmol at 4 hr.; type: functional, organism-based
Rattus norvegicus [4] = experiment: Ability to mobilize Bone-Calcium transport, following the administration of compound in rats at a concentration of 500 pmol at 4 hr.; type: functional, organism-based
Rattus norvegicus [5] = experiment: Ability to mobilize Bone-Calcium transport, following the administration of compound in rats at a concentration of 5000 pmol at 2 hr.; type: functional, organism-based
Rattus norvegicus [6] = experiment: Ability to mobilize Bone-Calcium transport, following the administration of compound in rats at a concentration of 5 pmol at 24 hr.; type: functional, organism-based
Rattus norvegicus [7] = experiment: Ability to mobilize Bone-Calcium transport, following the administration of compound in rats at a concentration of 50 pmol at 4 hr.; type: functional, organism-based
Rattus norvegicus [8] = experiment: Ability to stimulate intestinal-calcium transport by the administration of compound in rats at a concentration of 50 pmol at 2 hr.; type: functional, Intestine
Gallus gallus = organism: Gallus gallus; experiment: Bind to chick intestinal Vitamin D3 receptor for 1,25-(OH)2-D3
Rattus norvegicus [9] = experiment: Ability to stimulate intestinal-calcium transport by the administration of compound in rats at a concentration of 50 pmol at 4 hr.; type: functional, Intestine
Rattus norvegicus [10] = experiment: Ability to stimulate intestinal-calcium transport by the administration of compound in rats at a concentration of 5000 pmol at 69 hr.; type: functional, Intestine
Rattus norvegicus [11] = experiment: Ability to stimulate intestinal-calcium transport by the administration of compound in rats at a concentration of 5 pmol at 4 hr.; type: functional, Intestine
Rattus norvegicus [12] = experiment: Ability to stimulate intestinal-calcium transport by the administration of compound in rats at a concentration of 5000 pmol at 2 hr.; type: functional, Intestine
Rattus norvegicus [13] = experiment: Ability to mobilize Bone-Calcium transport, following the administration of compound in rats at a concentration of 50 pmol at 2 hr.; type: functional, organism-based
Rattus norvegicus [14] = experiment: Ability to mobilize Bone-Calcium transport, following the administration of compound in rats at a concentration of 50 pmol at 69 hr.; type: functional, organism-based
Rattus norvegicus [15] = experiment: Ability to mobilize Bone-Calcium transport, following the administration of compound in rats at a concentration of 500 pmol at 24 hr.; type: functional, organism-based
Rattus norvegicus [16] = experiment: Ability to mobilize Bone-Calcium transport, following the administration of compound in rats at a concentration of 50 pmol at 24 hr.; type: functional, organism-based
Rattus norvegicus [17] = experiment: Ability to stimulate intestinal-calcium transport by the administration of compound in rats at a concentration of 5000 pmol at 4 hr.; type: functional, Intestine
Rattus norvegicus [18] = experiment: Ability to stimulate intestinal-calcium transport by the administration of compound in rats at a concentration of 50 pmol at 24 hr.; type: functional, Intestine
Rattus norvegicus [19] = experiment: Ability to mobilize Bone-Calcium transport, following the administration of compound in rats at a concentration of 5000 pmol at 24 hr.; type: functional, organism-based
Rattus norvegicus [20] = experiment: Ability to stimulate intestinal-calcium transport by the administration of compound in rats at a concentration of 5 pmol at 24 hr.; type: functional, Intestine
Rattus norvegicus [21] = experiment: Ability to stimulate intestinal-calcium transport by the administration of compound in rats at a concentration of 5000 pmol at 12 hr.; type: functional, Intestine
Rattus norvegicus [22] = experiment: Ability to mobilize Bone-Calcium transport, following the administration of compound in rats at a concentration of 5 pmol at 2 hr.; type: functional, organism-based
Rattus norvegicus [23] = experiment: Ability to mobilize Bone-Calcium transport, following the administration of compound in rats at a concentration of 5000 pmol at 12 hr.; type: functional, organism-based
Rattus norvegicus [24] = experiment: Ability to stimulate intestinal-calcium transport by the administration of compound in rats at a concentration of 5000 pmol at 24 hr.; type: functional, Intestine
Rattus norvegicus [25] = experiment: Ability to stimulate intestinal-calcium transport by the administration of compound in rats at a concentration of 500 pmol at 2 hr.; type: functional, Intestine
Rattus norvegicus [26] = experiment: Ability to mobilize Bone-Calcium transport, following the administration of compound in rats at a concentration of 5000 pmol at 4 hr.; type: functional, organism-based
Rattus norvegicus [27] = experiment: Ability to stimulate intestinal-calcium transport by the administration of compound in rats at a concentration of 5000 pmol at 48 hr.; type: functional, Intestine
Rattus norvegicus [28] = experiment: Ability to stimulate intestinal-calcium transport by the administration of compound in rats at a concentration of 500 pmol at 24 hr.; type: functional, Intestine
Rattus norvegicus [29] = experiment: Ability to stimulate intestinal-calcium transport by the administration of compound in rats at a concentration of 5 pmol at 2 hr.; type: functional, Intestine
Rattus norvegicus [30] = experiment: Ability to mobilize Bone-Calcium transport, following the administration of compound in rats at a concentration of 500 pmol at 2 hr.; type: functional, organism-based
Rattus norvegicus [31] = experiment: Ability to mobilize Bone-Calcium transport, following the administration of compound in rats at a concentration of 50 pmol at 13 hr.; type: functional, organism-based
Rattus norvegicus [32] = experiment: Ability to mobilize Bone-Calcium transport, following the administration of compound in rats at a concentration of 500 pmol at 47 hr.; type: functional, organism-based
Rattus norvegicus [33] = experiment: Ability to mobilize Bone-Calcium transport, following the administration of compound in rats at a concentration of 50 pmol at 72 hr.; type: functional, organism-based
Rattus norvegicus [34] = experiment: Ability to stimulate intestinal-calcium transport by the administration of compound in rats at a concentration of 5 pmol at 13 hr.; type: functional, Intestine
Rattus norvegicus [35] = experiment: Ability to stimulate intestinal-calcium transport by the administration of compound in rats at a concentration of 500 pmol at 47 hr.; type: functional, Intestine
Rattus norvegicus [36] = experiment: Ability to stimulate intestinal-calcium transport by the administration of compound in rats at a concentration of 5 pmol at 72 hr.; type: functional, Intestine
Rattus norvegicus [37] = experiment: Ability to mobilize Bone-Calcium transport, following the administration of compound in rats at a concentration of 5 pmol at 13 hr.; type: functional, organism-based

Structure (SMILES) | Serosal/Mucosal Ca (Rattus norvegicus [1]) | B50 [2] | Serum Ca2+ (Rattus norvegicus [3]) | Serum Ca2+ (Rattus norvegicus [4]) | Serum Ca2+ (Rattus norvegicus [5]) | Serum Ca2+ (Rattus norvegicus [6]) | Serum Ca2+ (Rattus norvegicus [7]) | Serosal/Mucosal Ca (Rattus norvegicus [8]) | B50 (Gallus gallus) | Serosal/Mucosal Ca (Rattus norvegicus [9]) | Serosal/Mucosal Ca (Rattus norvegicus [11]) | Serosal/Mucosal Ca (Rattus norvegicus [12]) | Serum Ca2+ (Rattus norvegicus [13]) | Serum Ca2+ (Rattus norvegicus [15]) | Serum Ca2+ (Rattus norvegicus [16]) | Serosal/Mucosal Ca (Rattus norvegicus [17]) | Serosal/Mucosal Ca (Rattus norvegicus [18]) | Serum Ca2+ (Rattus norvegicus [19]) | Serosal/Mucosal Ca (Rattus norvegicus [20]) | Serum Ca2+ (Rattus norvegicus [22]) | other results
C=C1/C(=C\C=C2/CCC[C@]3(C)[C@@H]([C@H](C)CCCC(C)(C)O)CC[C@@H]23)C[C@@H](O)C[C@@H]1O [CALCITRIOL] | 6.6 | 45.3 nM | 4.32 mg/dL | 5.32 mg/dL | 4.84 mg/dL | 4.58 mg/dL | 4.58 mg/dL | 2.5 | 0.0725 nM | 5.09 | 2.53 | 3.12 | 4.35 mg/dL | 4.98 mg/dL | 5 mg/dL | 7.66 | 4.34 | 5.5 mg/dL | 2.95 | 4.4 mg/dL | Serosal/Mucosal Ca (Rattus norvegicus [10]): 4.99; Serum Ca2+ (Rattus norvegicus [14]): 4.55 mg/dL; Serosal/Mucosal Ca (Rattus norvegicus [21]): 7; Serum Ca2+ (Rattus norvegicus [23]): 6.14 mg/dL; Serosal/Mucosal Ca (Rattus norvegicus [24]): 4.71; Serosal/Mucosal Ca (Rattus norvegicus [25]): 3.1; Serum Ca2+ (Rattus norvegicus [26]): 5.6 mg/dL; Serosal/Mucosal Ca (Rattus norvegicus [27]): 7.22; Serosal/Mucosal Ca (Rattus norvegicus [28]): 3.5; Serosal/Mucosal Ca (Rattus norvegicus [29]): 2.21; Serum Ca2+ (Rattus norvegicus [30]): 4.76 mg/dL
C=C1CC[C@H](O)C/C1=C/C=C1\CCC[C@]2(C)[C@@H]([C@H](C)CCC(F)(F)C(O)(CC)CC)CC[C@@H]12 | 2.27 | 25.8 nM | 4.38 mg/dL | 4.4 mg/dL | 4.78 mg/dL | 4.9 mg/dL | 4.18 mg/dL | 1.8 | 52.8 nM | 1.97 | 1.61 | 3.77 | 4.28 mg/dL | 5.1 mg/dL | 4.72 mg/dL | 3.18 | 6.16 | 5.9 mg/dL | 2.34 | 4.4 mg/dL | Serum Ca2+ (Rattus norvegicus [31]): 4.14 mg/dL; Serum Ca2+ (Rattus norvegicus [32]): 4.5 mg/dL; Serum Ca2+ (Rattus norvegicus [33]): 4.64 mg/dL; Serosal/Mucosal Ca (Rattus norvegicus [34]): 2.3; Serosal/Mucosal Ca (Rattus norvegicus [35]): 8.04; Serosal/Mucosal Ca (Rattus norvegicus [24]): 8.65; Serosal/Mucosal Ca (Rattus norvegicus [36]): 2.2; Serosal/Mucosal Ca (Rattus norvegicus [25]): 2.58; Serum Ca2+ (Rattus norvegicus [26]): 4.56 mg/dL; Serosal/Mucosal Ca (Rattus norvegicus [28]): 7.11; Serosal/Mucosal Ca (Rattus norvegicus [29]): 1.89; Serum Ca2+ (Rattus norvegicus [37]): 4.2 mg/dL; Serum Ca2+ (Rattus norvegicus [30]): 4.22 mg/dL
C=C1CC[C@H](O)C/C1=C/C=C1\CCC[C@]2(C)[C@@H]([C@H](C)CCCC(C)(C)O)CC[C@@H]12 [CALCIFEDIOL ANHYDROUS] | 2.83 | 3.77 nM | 4.14 mg/dL | 4.22 mg/dL | 4.64 mg/dL | 4.34 mg/dL | 4.1 mg/dL | 1.75 | 282 nM | 2.17 | 2.42 | 2.93 | 4.48 mg/dL | 5.5 mg/dL | 5.06 mg/dL | 3.31 | 4.8 | 5.82 mg/dL | 2.84 | 4.32 mg/dL | Serum Ca2+ (Rattus norvegicus [31]): 4.86 mg/dL; Serum Ca2+ (Rattus norvegicus [32]): 5.12 mg/dL; Serum Ca2+ (Rattus norvegicus [33]): 4.52 mg/dL; Serosal/Mucosal Ca (Rattus norvegicus [34]): 2.22; Serosal/Mucosal Ca (Rattus norvegicus [35]): 9.99; Serosal/Mucosal Ca (Rattus norvegicus [24]): 7.19; Serosal/Mucosal Ca (Rattus norvegicus [36]): 3.59; Serosal/Mucosal Ca (Rattus norvegicus [25]): 2.22; Serum Ca2+ (Rattus norvegicus [26]): 4.12 mg/dL; Serosal/Mucosal Ca (Rattus norvegicus [28]): 7.19; Serosal/Mucosal Ca (Rattus norvegicus [29]): 2.03; Serum Ca2+ (Rattus norvegicus [37]): 4.4 mg/dL; Serum Ca2+ (Rattus norvegicus [30]): 4.66 mg/dL
C=C1/C(=C\C=C2/CCC[C@]3(C)[C@@H]([C@H](C)CCC(F)(F)C(O)(CC)CC)CC[C@@H]23)C[C@@H](O)C[C@@H]1O | 6.44 | 2200 nM | 4.28 mg/dL | 5.1 mg/dL | 5.1 mg/dL | 4.38 mg/dL | 5 mg/dL | 2.27 | 0.495 nM | 4.22 | 3.36 | 3.7 | 4.42 mg/dL | 5.58 mg/dL | 4.74 mg/dL | 4.84 | 3.93 | 6.36 mg/dL | 2.14 | 4.5 mg/dL | Serosal/Mucosal Ca (Rattus norvegicus [10]): 8.84; Serum Ca2+ (Rattus norvegicus [14]): 4.02 mg/dL; Serosal/Mucosal Ca (Rattus norvegicus [21]): 8.39; Serum Ca2+ (Rattus norvegicus [23]): 6.4 mg/dL; Serosal/Mucosal Ca (Rattus norvegicus [24]): 5.32; Serosal/Mucosal Ca (Rattus norvegicus [25]): 4.55; Serum Ca2+ (Rattus norvegicus [26]): 5.48 mg/dL; Serosal/Mucosal Ca (Rattus norvegicus [27]): 8; Serosal/Mucosal Ca (Rattus norvegicus [28]): 7.3; Serosal/Mucosal Ca (Rattus norvegicus [29]): 2.08; Serum Ca2+ (Rattus norvegicus [30]): 4.8 mg/dL
